The NIST ThermoML archive (doi:10.1016/j.fluid.2010.03.001)

Tests used:
[1] = xn = mol fraction of the nth substance listed; conditions: 101 kPa, Liquid, x1 = 1; for viscosity: Concentric cylinders viscometry; for mass density: Vibrating tube method
[2] = Liquid; for viscosity / mass density: 101.33 kPa; for viscosity: Concentric cylinders viscometry; for mass density: Vibrating tube method; for vapor or sublimation pressure: Ebulliometric method (Recirculating still)

CCCCCO [pentan-1-ol] + C=C(C)[C@H]1CC=C(C)CC1
[1]
Conditions	mass density [kg/m3]	viscosity [mPa·s]
293.15 K	814.7	4.03
303.15 K	807.2	3.02
313.15 K	799.8	2.315
323.15 K	792.2	1.801
333.15 K	784.3	1.425
343.15 K	776.3	1.146
353.15 K	768	0.935
363.15 K	759.5	0.772
373.15 K	750.6	0.647

C=C(C)[C@H]1CC=C(C)CC1 [(R)-1-methyl-4-(1-methylethenyl)cyclohexene]
[2]
Conditions	mass density [kg/m3]	viscosity [mPa·s]
293.15 K	–	0.902
298.15 K	837.3	0.89
303.15 K	833.6	0.793
313.15 K	825.8	0.702
323.15 K	817.9	0.628
333.15 K	809.9	0.566
343.15 K	801.9	0.5
353.15 K	793.6	0.452
363.15 K	785.4	0.413
373.15 K	777.1	0.382

CCCCCO [pentan-1-ol]
[2]
Conditions	mass density [kg/m3]	vapor or sublimation pressure [kPa]	viscosity [mPa·s]
293.15 K	814.7	–	4.03
298.15 K	810.7	–	3.48
303.15 K	807.2	–	3.02
313.15 K	799.8	–	2.315
323.15 K	792.2	–	1.801
328.15 K	–	2.3	–
329.5 K	–	2.5	–
333.15 K	784.3	3.1	1.425
338.15 K	–	4.2	–
341.2 K	–	5	–
343.15 K	776.3	5.6	1.146
348.75 K	–	7.5	–
353.15 K	768	–	0.935
354.37 K	–	10	–
362.63 K	–	15	–
363.15 K	759.5	–	0.772
368.86 K	–	20	–
373.15 K	750.6	–	0.647
378.2 K	–	30	–
385.33 K	–	40	–
391.03 K	–	50	–
395.87 K	–	60	–
400.1 K	–	70	–
403.86 K	–	80	–
407.25 K	–	90	–
408.9 K	–	95.1	–
